Experimental data as given in article PMC8533333, “Melatonin Analogues Potently Inhibit MAO-B and Protect PC12 Cells against Oxidative Stress” (Antioxidants, 2021).
pIC50: −log10 of the molar value.

Tests used:
[1] = biological target: T1, Human recombinant MAO-B (hMAO-B) (Homo sapiens, UniProt P27338); experiment: MAO-B enzyme assay (Amplex Red, resorufin fluorescence); type: biochemical; conditions: for Selectivity Index (SI): IC50 (MAO-A)/IC50 (MAO-B); for pIC50: five doses 10-0.001 µM, triplicate; for % Inhibition of MAO-B at 10 µM / inhibition at 10 µM: single dose 10 µM
T1 construct: purchased Sigma Aldrich; host or cells: insect cells
T1 sequence (P27338 1-520): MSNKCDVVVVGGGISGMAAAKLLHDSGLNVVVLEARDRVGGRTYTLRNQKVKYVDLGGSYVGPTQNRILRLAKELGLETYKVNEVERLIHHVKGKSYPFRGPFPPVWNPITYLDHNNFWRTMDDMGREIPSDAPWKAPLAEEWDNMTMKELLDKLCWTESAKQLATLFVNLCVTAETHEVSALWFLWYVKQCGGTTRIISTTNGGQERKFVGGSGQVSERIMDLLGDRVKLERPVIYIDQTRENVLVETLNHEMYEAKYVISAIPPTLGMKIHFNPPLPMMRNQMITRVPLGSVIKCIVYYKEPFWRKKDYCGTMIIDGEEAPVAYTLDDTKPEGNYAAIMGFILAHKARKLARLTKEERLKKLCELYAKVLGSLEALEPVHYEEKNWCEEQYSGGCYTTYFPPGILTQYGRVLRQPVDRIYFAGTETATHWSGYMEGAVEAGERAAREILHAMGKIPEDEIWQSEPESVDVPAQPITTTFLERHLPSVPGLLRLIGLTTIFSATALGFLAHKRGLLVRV
Description: Biological evaluation of the synthesized melatonin derivatives over both MAO-A and MAO-B was performed as reported previously. A detailed description of the protocol is in the Supplementary Materials.
First, the synthesized melatonin analogues (3a–x) were biologically evaluated over an MAO-B recombinant enzyme. The experiment was performed using Amplex® Red reagent technology. This technology offers quantitative enzyme activity sensitive detection, a wider dynamic range, and fluorescence emission outside the range of compound autofluorescence (if any). The Amplex® Red reagent is a colorless substrate that reacts with H2O2 in a 1:1 stoichiometry to produce a highly fluorescent resorufin; therefore, the induced inhibitory effects of the melatonin analogues over MAO-B were examined via spectrophotometry where the fluorescence rate of resorufin dye formation was measured.
Accordingly, compounds 3n, 3r, and 3u–w were further tested to determine their IC50 values over MAO-B in triplicate from the dose–response inhibition curves using Sigma-Plot software 13.0.
6. Materials and methods of monoamine oxidase (MAO) enzyme assay
The inhibitory activity of MAO-A, B enzyme of the compounds was evaluated based on previously described method. The MAO activity was measured in relative fluorescence units (RFU) evoked by peroxidase-catalyzed oxidation of Amplex Red® to resorufin, in which H2O2 generated by MAO reaction was used as the […]. Human recombinant MAO-A (hMAO-A) and MAO-B (hMAO-B) enzyme expressed in insect cells were obtained from Sigma Aldrich. The 2 μL of test compound in DMSO (final concentration: 1 nM – 10 μM) was treated with 98 μL of hMAO enzyme solution in 50 mM sodium phosphate buffer (pH 7.4, final protein amounts: ~1.25 μg protein/well for MAO-A and ~2.5 μg protein/well for MAO -B) on 96-well black plate and incubated for 15 min at 37 °C. Then 100 μL of reaction working solution which is mixed solution of 400 μM Amplex Red® (Cayman, final concentration: 200 μM), 2 U/mL horseradish peroxidase ( Sigma-Aldrich, final concentration: 1 U/mL) and 2 mM substrate ( p-tyramine for MAO -A, benzylamine for MAO -B, Sigma-Aldrich, final concentration: 1 mM) in 50 mM sodium phosphate buffer (pH 7.4) were added and incubated for 20 min at 37 °C in the dark. The fluorescent intensity was quantified using a microplate reader (SpectraMax®i3, Molecular Device) with an excitation at 545 nm and an emission at 590 nm. The 50% inhibitory concentrations (IC50) of compounds were determined as the mean ± S.E.M. in triplicate from the dose-response inhibition curves using SigmaPlot® 13.0. […]

PC12 cells = experiment: Neuroprotection against rotenone-induced toxicity in PC12 cells (MTT); conditions: Rattus norvegicus, PC-12, 24 h, read-out: IC50 of protection from rotenone-induced toxicity
Description: Control cells were incubated in an equivalent volume of DMSO to a final concentration of 0.3%. Neuroprotective effects of the tested compounds on the toxicity induced by 6-OHDA or rotenone in PC12 cells were evaluated as described previously with slight modifications. In brief, cells were pre-treated with the tested compounds or rasagiline at the indicated concentrations for 4 h. Next, they were exposed to 6-OHDA (50 μM) or rotenone (1 μM) for 24 h. In another set of experiments, the influence of HO-1 inhibitor, ZnPP, on the neuroprotective effects of the tested compounds against 6-OHDA-induced oxidative damage was investigated as previously reported. Briefly, the cells were pre-treated with the tested compounds for 4 h and then incubated with 0.2 µM of ZnPP for 30 min. Subsequently, 6-OHDA was added at a final concentration of 50 µM and incubated for 24 h.
After the desired treatment, cell viability was determined by MTT assay as described previously. Briefly, MTT was added to the cells at the final concentration of 0.5 mg/mL, which was followed by incubation for 3 h at 37 °C. The supernatants were carefully removed, and then, 300 μL of DMSO was added to each well to dissolve formazan precipitate. The absorbance of the dissolved solution was measured at 550 nm using a microplate reader (SpectraMax M2^e, Molecular Devices, Sunnyvale, CA, USA). The cell viability was presented as the percentage of the absorbance measured in the vehicle-treated control cells.

For `O=C(Nc1ccc2[nH]ccc2c1)c1cccc(Br)c1` [3r, 3-Bromo-N-(1H-indol-5-yl)benzamide], the “Selectivity Index (SI)” value [1] was >109, the pIC50 [1] was 6.04 and the “% Inhibition of MAO-B at 10 µM” value [1] was 87.00 ± 0.03%. For the same molecule, the inhibition at 10 µM [1] was > 70% and the pIC50 (PC12 cells) was 6.06.

For `O=C(Nc1ccc2[nH]ccc2c1)c1cccc(Cl)c1` [3n, 3-Chloro-N-(1H-indol-5-yl)benzamide], the “Selectivity Index (SI)” value [1] was >71, the pIC50 [1] was 5.85 and the “% Inhibition of MAO-B at 10 µM” value [1] was 76.79 ± 0.27%. The inhibition at 10 µM [1] was > 70% and the pIC50 (PC12 cells) was 5.85.
